# Test results: a melting point compilation (Tetko et al.; mined from patent text by program, amines drawn as free bases though some values may be those of a salt)
row,melting point [°C],Structure (SMILES)
1,169 to 172,O=C(O)c1c[nH]c(Sc2cc(Cl)cc(Cl)c2)c1
2,142 to 143,C#CCn1c(=O)n(CCN2CCN(c3ccccc3OC)CC2)c(=O)c2cscc21
3,168 to 169,COc1cc(NS(=O)(=O)c2ccc(Cl)cc2)c(C(=O)O)cc1OC
4,296 to 297,CSc1ccc(Cc2cccc(-c3c(O)c4ccc(Cl)cc4[nH]c3=O)c2)cc1
5,169 to 171,COc1cc(O)c2c(=O)c(OC(C)C)c(-c3ccc(O)c(OC)c3)oc2c1
6,123 to 125,Cc1cn2cccc(C=O)c2n1
7,94 to 96,CSCCOc1ccc(/C=C(\C)c2ccc3c(c2)C(C)(C)CCC3(C)C)cc1
8,163 to 164,C[C@@H](C[C@H](N)C(=O)O)C(=O)O
9,199 to 200,O=C(OCc1ccccc1)N1CCc2ccccc2C12CCC(C(=O)O)(C(=O)O)CC2
10,187 to 189,O=C(Nc1ccc2nc(CN3CCCC3)ccc2c1)N1CCC(c2ccccc2)CC1
11,120 to 122,Cc1nc(-c2ccccc2)nc(Cl)c1C
12,152 to 154,CC(=O)OC1CC(=O)N1 (configuration not stated)
13,53.5 to 55,C=C(C)COc1c(C)c(CCC(O)CC(=O)CC(=O)OCC)c2c(c1C)CC(C)(C)O2 (configuration not stated)
14,119 to 121,N#CCN1CCOC(c2ccccc2)(c2ccccc2)CC1
15,238 to 239,COc1cc(OC)c2sc(-c3ccc([N+](=O)[O-])cc3)nc2c1
16,123 to 125,Cc1c(C)c2c(c(C)c1O)CC(CCO)O2 (racemic)
17,239 to 241,CCc1cccc2oc(C(=O)Nc3ccc(-c4ccc(S(=O)(=O)NC(C(=O)O)C(C)C)cc4)cc3)c(C)c12 (configuration not stated)
18,93 to 95,Brc1ccc(Cn2cnc3ccccc32)cc1
19,144,CC(C)(C)c1cccc(S(=O)(=O)n2c(Cc3ccc(C(=O)O)c(F)c3)cc3cc(C(F)(F)F)ccc32)c1
20,224 to 226,COc1cc2c(c(Br)c1OC(C)=O)Sc1cc(F)ccc1N2
21,186 to 193,CC(=O)N(CCN1CCC(Nc2nc3ccccc3n2Cc2ccc(F)cc2)CC1)c1nccs1
22,88 to 90,CN(C)Cc1cc(C(C)(C)c2cc(CN(C)C)c(O)c(CN(C)C)c2)cc(CN(C)C)c1O
23,147 to 149,CCOC(=O)N1CCN(c2c(F)cc([N+](=O)[O-])c(F)c2CO)CC1
24,136 to 137,C=NOCc1ccc(CCc2csc(NC(C)=O)n2)cc1
25,62.5 to 63.5,CCOC(=O)CSc1nnsc1-c1ccc(C(C)(C)C)cc1

row,melting point [°C],Structure (SMILES)
1,197 to 201,CC(C)CC(CC(=O)NO)C(=O)N[C@H]1Cc2cn(c3ccccc23)CCCCCCCNC1=O (some centres not stated)
2,199 to 200,CON(C)C(=O)Nc1c(C(=O)c2cc(C)ccn2)[nH]c2cc(Cl)ccc12
3,256 to 257,O=C1CC(=O)NC(c2cccc(Cl)c2)=N1
4,55 to 57,C=C1OC(c2ccc(Cl)cc2)=NC1(C)CC (configuration not stated)
5,95,O=C1COc2cc(OCCCCl)ccc2N1
6,115 to 116,COc1ccc2c(c1)CCC1C2CCC2(C)C(=O)C(C)CC12 (configuration not stated)
7,80 to 83,CCCc1c(OCc2ccc(C(=O)O)c(Br)c2)ccc(C(C)=O)c1O
8,157,CCN(CCN(CC)c1ccc(N=O)c(C)c1)c1ccc(N=O)c(C)c1
9,87,CCOC(=O)C(=CNc1ccc(F)c(F)c1OCc1ccccc1)C(=O)OCC
10,67 to 70,C#CCSc1nc(Cl)cc(Cl)n1
11,94 to 96,OCc1cnc(C(O)c2cc(F)ccc2F)c(F)c1 (configuration not stated)
12,87,CCCCC[C@H]1CC[C@H](c2ncc(-c3ccc(CCCC)cc3)cn2)CC1
13,96 to 100,CN1C(=O)C2C3CCC(C3)C2(c2ccc(F)c(F)c2)C1=O (configuration not stated)
14,308 to 314,O=C(O)c1cnc2n(c1=O)CCc1cc(O)c(O)cc1-2
15,114 to 115,CCOc1ccccc1C(=O)c1oc2ccc(Cl)cc2c1N
16,196 to 199,Cc1cc(NC(c2ccccc2)(c2ccccc2)c2ccccc2)no1
17,157 to 159,Clc1nc2ccccc2nc1Nc1cccc2ccccc12
18,128,Cc1cc(N)c([N+](=O)[O-])cc1OS(C)(=O)=O
19,231,O=C1CC(c2cccc(-n3ccnn3)c2)=Nc2ccc(-c3cc(F)ccc3F)cc2N1
20,150,CC(C)(C)c1cc(CCc2ccccc2NC(=O)NCCCc2cccs2)cc(C(C)(C)C)c1O
21,96 to 97,Cc1csc(N2CCN(Cc3ccc(C(=O)n4nccc4C)cc3)C2=O)n1
22,138 to 139,Cn1c(Sc2cccc(C(F)(F)F)c2)nc2c(-c3cccc(C(=O)NCCO)c3)cccc21
23,109 to 110,CN1CCOc2ccc(S(=O)(=O)Nc3ccc(CCl)cc3I)cc21
24,150 to 155,COc1cc(OCCN2CCCCC2)ccc1/C=C/c1cc(/C=C/c2ccc3cc[nH]c3c2)n[nH]1
25,266 to 267,O=c1cc(-c2ccccc2)[nH]c(=S)[nH]1

row,melting point [°C],Structure (SMILES)
1,126 to 127,CO[C@]1(c2cc(F)cc(Oc3ccc(/C(C)=N/O)cc3)c2)CCO[C@@H]1C (racemic)
2,96 to 97,CCC(N)=C(C(C)=O)C(=O)N(CCN(C)C)c1cccc(F)c1
3,105,O=C(O)CCCCCCCCCCCOc1ccccc1OCCCC(=O)O
4,120 to 130,COc1ccc(/C=C/C(=O)CC(=O)/C=C/c2ccc(O)cc2Cl)cc1O
5,160 to 161,CC1CN(C(=O)Cn2c(=O)n(C)c3nc(-c4ccccc4)ncc32)CC(C)O1 (configuration not stated)
6,161 to 163,O=CN(O)C(CN1CCOCC1)CS(=O)(=O)c1ccccc1Oc1ccc(OC(F)(F)F)cc1 (configuration not stated)
7,169 to 170,CCc1cc(C#N)cc2c(NCc3ccc(OC)c(Cl)c3)c(C(=O)Oc3c(F)c(F)c(F)c(F)c3F)cnc12
8,146 to 149,CSc1cc(Cl)ccc1C(=O)C(C#N)C(=O)c1cc(C(F)(F)F)cc(C(F)(F)F)c1 (configuration not stated)
9,236 to 242,Cc1cc2c(=O)c(C(=O)O)cn(-c3cc(N)c(F)cc3F)c2c([N+](=O)[O-])c1F
10,160 to 162,Cc1ccc2c(c1)N=C(N1CCN(C)CC1)c1cccc3c1N2CC3
11,172 to 173,COc1cc(C2(OC)CCOCC2)ccc1OCc1ccc2c(ccc(=O)n2C)c1
12,68 to 69,O=C1SCCN1Cc1ccc(Cl)cc1
13,218 to 220,CCOC(=O)c1c(-c2ccccc2)n(C)n(-c2ccc(C#N)cc2)c1=O
14,131 to 133,CC(C)(O)CCOc1c(-c2ccc(S(C)(=O)=O)cc2)cnn(-c2ccc(F)c(F)c2)c1=O
15,138 to 141,COc1ccc(Cl)cc1C(=O)NCCc1ccc(CC(C)(C)C(=O)O)cc1
16,215 to 217,Cc1ccc(Cl)c2c1N(C1CC1)CNS2(=O)=O
17,121,CCC(CNC(=O)c1ccc(C(F)(F)F)c(NC(C)=O)c1)OC(C)=O (configuration not stated)
18,89 to 91,CC(C)(NCC(O)Cn1ccnc1)c1ccc(Cl)cc1 (configuration not stated)
19,38 to 40,N#Cc1ccc(OCc2ccsc2)cc1OC(C(=O)O)c1ccccc1C(F)(F)F (racemic)
20,82 to 84,CN(CCc1ccccn1)C(=O)CCSc1cc(C(C)(C)C)c(O)c(C(C)(C)C)c1
21,133 to 135,CC(C)Nc1nc2ccccc2n2cnnc12
22,112 to 114,CC(C)(C)OC(=O)N1CC[C@H](Oc2ccc([N+](=O)[O-])cc2)C1
23,86 to 88,CCOCN1C(C)=C(C(=O)OC)C(c2cccc([N+](=O)[O-])c2)C(C(=O)OC)=C1C
24,56.7,C[C@H]1CCCC(C)(C)[C@@H]1C(=O)c1cc(F)c(F)c(F)c1
25,174 to 175,CC1(C)OC(=O)Nc2ccc(-c3cccc(Br)c3)cc21

row,melting point [°C],Structure (SMILES)
1,361 to 363,O=C(O)c1cc(=O)[nH]c2ccc(I)cc12
2,142 to 144,C#CCN(C(=O)c1cn(C)cc1C(F)(F)F)c1cccc2c1C(C)CC2(C)C (configuration not stated)
3,192,CC(=O)N1CCN(CC(=O)OC2c3ccccc3C(=O)N2c2ccc3ccc(Cl)nc3n2)CC1 (configuration not stated)
4,231,Cc1cc2c(cc1C)C(c1ccccc1Cl)C(=O)N2 (configuration not stated)
5,114 to 117,CN1CCN(CCCN(C)C(=O)Cn2c(-c3cccc(Cl)c3)nc3cccnc32)CC1
6,78 to 81,Cn1nnnc1SCc1ccccn1
7,166 to 169,O=C(N[C@@H](Cc1ccccc1)C(=O)O)c1cnccn1
8,202 to 203,O=c1[nH]c2cccc(Cl)c2s1
9,53 to 54,Cc1cc(Br)n2ccnc2c1
10,184 to 186,Cc1ccc2cccc(OCc3c(Cl)ccc(C=O)c3Cl)c2n1
11,148 to 151,CC(ON=C(C(=O)O)c1ccc(O)c(Cl)c1)C(=O)OC(C)(C)C (configuration not stated)
12,50.5 to 52,CC(C)OC(=O)c1cc(N)ccc1Cl
13,50,CCn1cc(CCC(=O)O)c2ccccc21
14,238 to 240,CN1c2ccc(Cl)cc2NC(=S)c2cscc21
15,280,Nc1cc(-n2cc(C(=O)O)c(=O)c3cc(F)c(N4CC(N)C4)c(Cl)c32)cnc1Cl
16,218 to 219,CCOc1ccc(NC(=O)c2c[nH]c3c2C(=O)C(C)(C)CC3)c(F)c1
17,275 to 276,CC(=O)Nc1ccc2c(c1)Cc1c(-c3ccccc3)n[nH]c1-2
18,144,COc1cc(NC(C)=O)ccc1OCC(O)CN1CCN(c2ccccc2F)CC1 (configuration not stated)
19,125 to 132,Cc1ccc(C)n1-c1c(C(C)C)cc([N+](=O)[O-])cc1C(C)C
20,162 to 163,COc1cc(CCC(=O)O)ccc1OCc1oc(-c2ccc(C(F)(F)F)cc2)nc1C
21,90 to 91,COC(=O)CCC(N=O)C(C)(C)Cl (configuration not stated)
22,223 to 225,O=C1C(c2ccc(O)cc2)=C(c2ccccc2)c2c(O)cc(O)cc21
23,171 to 180,COc1ccc2c3c(c(=O)oc2c1)CNCC3
24,217 to 220,CC12CCC(C(=O)O)=CC1=CCC1C2CCC2(C)C(C(=O)C3CCCCC3)CCC12 (configuration not stated)

row,Structure (SMILES),melting point [°C]
1,O=[N+]([O-])c1ccc(CCN2CCN(c3ccc([N+](=O)[O-])cc3Cl)CC2)cc1,100 to 102
2,COc1cc2c(cc1OC)N(C)C(=O)CN=C2c1cccc([N+](=O)[O-])c1,152 to 155
3,Cc1c(C=O)c2cnnc(NCc3ccccc3)c2n1Cc1ccccc1,171 to 172
